In article PMC3905653, “Characterization of two transketolases encoded on the chromosome and the plasmid pBM19 of the facultative ribulose monophosphate cycle methylotroph Bacillus methanolicus” (BMC Microbiology, 2014):

Key:
TKT^P = molecular target: T1, TKT^P (Bacillus methanolicus, UniProt Q6TV44); assay: inhibition in coupled assay I; type: biochemical; settings: effector tested at 1 and 5 mM, which one gave the value is not told; R5-P and X5-P, pH 7.5, Mn2+
T1 construct: gene tktP; full length, plasmid pBM19 gene; pET16b N-terminal His10 tag cut by factor Xa; E. coli BL21(DE3); 73 kDa, homotetramer 280 kDa

TKT^C = molecular target: T2, TKT^C (Bacillus methanolicus, UniProt I3DZN5); assay: inhibition in coupled assay I; type: biochemical; settings: effector tested at 1 and 5 mM, which one gave the value is not told; R5-P and X5-P, pH 7.5, Mn2+
T2 construct: gene tktC; full length, chromosomal gene; pET16b N-terminal His10 tag cut by factor Xa; E. coli BL21(DE3); 73 kDa, homotetramer 280 kDa; primers tktC encode start TTG-TTT-GAT-AAA-ATT-GAC-CAT (MFDKIDH) and C-terminal ALLKQ
T2 sequence (I3DZN5 entry or part of it): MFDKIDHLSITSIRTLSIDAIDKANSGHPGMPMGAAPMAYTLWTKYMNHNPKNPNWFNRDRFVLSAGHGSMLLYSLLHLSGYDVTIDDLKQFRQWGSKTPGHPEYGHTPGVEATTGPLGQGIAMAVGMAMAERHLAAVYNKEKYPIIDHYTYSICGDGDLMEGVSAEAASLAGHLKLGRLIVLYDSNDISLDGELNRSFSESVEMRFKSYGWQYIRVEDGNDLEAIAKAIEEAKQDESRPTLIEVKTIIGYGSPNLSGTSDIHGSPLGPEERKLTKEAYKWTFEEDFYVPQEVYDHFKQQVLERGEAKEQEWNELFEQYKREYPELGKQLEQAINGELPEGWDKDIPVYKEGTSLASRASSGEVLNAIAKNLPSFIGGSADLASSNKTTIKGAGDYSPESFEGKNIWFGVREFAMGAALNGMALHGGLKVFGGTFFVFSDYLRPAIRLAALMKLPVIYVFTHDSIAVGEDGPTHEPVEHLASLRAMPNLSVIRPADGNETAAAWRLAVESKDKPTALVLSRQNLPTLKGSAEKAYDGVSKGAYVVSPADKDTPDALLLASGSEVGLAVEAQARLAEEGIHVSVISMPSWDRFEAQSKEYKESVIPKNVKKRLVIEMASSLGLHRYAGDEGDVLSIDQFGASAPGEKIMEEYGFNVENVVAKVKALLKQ

T1 sequence (Q6TV44 entry or part of it): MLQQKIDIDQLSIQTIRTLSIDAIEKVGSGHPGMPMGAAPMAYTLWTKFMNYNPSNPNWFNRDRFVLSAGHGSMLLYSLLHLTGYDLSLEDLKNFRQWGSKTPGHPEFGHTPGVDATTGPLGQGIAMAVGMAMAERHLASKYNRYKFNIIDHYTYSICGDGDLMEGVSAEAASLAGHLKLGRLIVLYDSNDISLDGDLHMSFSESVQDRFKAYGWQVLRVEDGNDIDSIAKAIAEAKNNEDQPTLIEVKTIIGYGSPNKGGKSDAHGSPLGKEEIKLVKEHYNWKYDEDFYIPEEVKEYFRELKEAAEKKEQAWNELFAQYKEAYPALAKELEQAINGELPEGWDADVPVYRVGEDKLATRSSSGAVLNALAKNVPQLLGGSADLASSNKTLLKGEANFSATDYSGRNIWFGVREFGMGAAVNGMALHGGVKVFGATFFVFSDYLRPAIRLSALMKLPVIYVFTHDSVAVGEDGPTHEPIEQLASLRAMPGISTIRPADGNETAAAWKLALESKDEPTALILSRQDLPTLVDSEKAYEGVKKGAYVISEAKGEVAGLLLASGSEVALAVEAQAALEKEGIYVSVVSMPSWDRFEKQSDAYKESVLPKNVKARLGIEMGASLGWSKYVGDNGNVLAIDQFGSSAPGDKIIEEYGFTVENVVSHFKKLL

| SMILES | % inhibition (TKT^P) [%] | % inhibition (TKT^C) [%] |
| --- | --- | --- |
| Nc1ncnc2c1ncn2[C@@H]1O[C@H](COP(=O)(O)OP(=O)(O)OP(=O)(O)O)[C@@H](O)[C@H]1O [ATP] | 65 | 75 |
| Nc1ncnc2c1ncn2[C@@H]1O[C@H](COP(=O)(O)OP(=O)(O)O)[C@@H](O)[C@H]1O [ADP] | 65 | 95 |
